We go through eleven compounds from patent publication US20060263895A1, “Method for monitoring the stereoselectivity and relative rate of organic chemical reactions” (priority 2005, published 2006).

Experiment [1] is described as follows: [total 1,2-propanediol] in aqueous ISES layer by 1H NMR. Conditions: for [diol] (mM) @ 15 min: aqueous ISES layer, 1H NMR, t = 15 min; for Norm.: normalized to the catalyst derived from salen 3b (rate 1.0). As for the experimental part: The concentration of 1,2-propanediol in the aqueous layer was estimated under typical ISES conditions using 1H NMR spectroscopy. The bilayer was prepared as usual for double cuvette-ISES (Section V), but for the substitution of D2O for H2O in the buffer, and the elimination of the dehydrogenase enzymes. After 15 min, the aqueous layer (300 μL of 500 μL total) was withdrawn and mixed with a fresh solution of imidazole of known concentration (also 300 μL in D2O), as an internal concentration standard. Accumulation of the 1H NMR spectrum, followed by integration and quantitation, provided an experimental measure of [total diol] in the aqueous reporting layer at t=15 minutes for the catalyst under investigation. The observed diol concentrations for ten catalysts examined in this way are collected in Table S6, below. These have been normalized to the value for the catalyst derived from salen 3b (arbitrarily assigned a rate of 1.0).

A short description of experiment [2]: HKR of (±)-propylene oxide under standard neat 'Jacobsen conditions' (NMR conversion, chiral HPLC ee). Conditions: for NMR conv. (time) / % ee (HPLC): loading 0.25 mol %; for % ee of the 1,2-propanediol product, as observed by chiral HPLC (lower number): neat propylene oxide, 0.55 equiv. H2O, 0.25 mol % catalyst, 3 h reaction time. The protocol:
Salens in the fully synthetic, 42 member focused library that led to catalysts with appreciable activity, as indicated by double cuvette-ISES, were also evaluated ‘outside of the cuvette,’ under conditions more typically employed in HKR reactions. Specifically, these Co(III)-salen catalysts were evaluated in the HKR of (±)-propylene oxide, under neat conditions, similar to those described by Jacobsen and coworkers. Reactions were arbitrarily stopped after 3 hours, to obtain the enantiopurity of the 1,2-propanediol product at relatively early reaction times, for comparison with ISES predictions.
A typical procedure follows: To the Co(III)-salen catalyst derived from 7e (5.4 mg, 5.4 μmol, 0.25 mol %) and (±)-propylene oxide (125 mg, 2.15 mmol) at 0° C., was added water (21 μL, 1.18 mmol, 0.55 equiv.). The reaction mixture was securely capped, and allowed to warm to room temperature and stirred, most commonly for a total of 3 hours. Percent conversion at 3 hours was evaluated by 1H NMR of an aliquot (cooled to 0° C. for the transfer), in CDCl3. In most of these cases, the conversion was low enough after 3 hours, that the unreacted epoxide (bp 32° C.) was of relatively low ee, and was therefore removed by evaporation under aspirator vacuum. When the conversion was less than 5% by NMR after 3 hours, reactions were continued for longer times.
Upon termination of the reaction, the diol product was isolated by Kugelrohr distillation (˜120° C.-oven temp; 0.1 torr). To determine ee, the isolated diol was derivatized using p-bromobenzoyl imidazole (2.2 equiv.) in THF in the presence of NaH (4 equiv.) at room temperature for 5 min. The bis(p-bromobenzoate) esters obtained following sequential washes with 1 N HCl and saturated sodium bicarbonate, were of sufficient purity to be used directly for chiral HPLC analysis (Chiralcel OD, 99% […]). [drawing 23] [drawing 24] [drawing 25] [drawing 26] [drawing 27]

Experiment [3] is described as follows: Double cuvette-ISES (in situ enzymatic screening) of Co(III)-salen mediated HKR of (±)-propylene oxide. Conditions: for % ee of the 1,2-propanediol product, as predicted by double-cuvette ISES (upper number): bilayer of pH 8.6 buffer over 7.2 M epoxide in CHCl3, 0.25 mol % catalyst, 15-35 min, + = (S), − = (R). The protocol:
Aqueous reporting layers. containing TBADH/NADP+ (cuvette 1) and HLADH/NAD+ (cuvette 2), respectively, are then added. The increase in absorbance at 340 nm can be followed for several such sets in parallel by UV-vis spectrophotometry. The kinetic data are then used to make the double-cuvette ISES predictions.
A general procedure for double cuvette-ISES to estimate both enantioselectivities and relative rates for an array of catalysts being screened in parallel is presented below. The hydrolytic kinetic resolution (HKR) of (±) propylene oxide was chosen as model reaction.
Typically, quartz cuvettes with one cm light paths and with nominal one mL volumes were used. For each catalyst, a two cuvette screen was performed, with cuvette A containing HLADH, as (S)-propanediol-selective reporting enzyme, and cuvette B containing TBADH, as a (R)-propanediol-selective reporting enzyme. For each cuvette, the final volume was 800 μL (300 μL of organic layer; 500 μL of aqueous layer).
Both cuvettes A and B had the following composition: 150 μL (2.15 mmol) of (±)-propylene oxide (7.2 M in organic layer), 150 μL of CHCl3 and 0.25 mol % Co(III)-salen catalyst. The total organic layer volume was maintained as 300 μL in all catalyst screens.
(i) Cuvette A: 0.35 U HLADH (17.6 μL from a stock solution (0.02U/μL)), 7.2 mM β-NAD+(16.5 μL from a 220 mM stock) and 465.8 μL of 50 mM sodium pyrophosphate buffer, pH 8.8. The final pH was 8.6.
(ii) Cuvette B: 0.35 U TBADH (15.8 μL from a stock solution (0.022U/μL)) of, 2.2 mM β-NADP+ (5 μL from a 220 mM stock) and 479.5 μL of 50 mM sodium pyrophosphate buffer, pH 8.8. The final pH was 8.6. The total volume of the aqueous layer was maintained as 500 μL in both cuvettes in all ISES experiments.
C. Step by Step Protocol: A catalyst stock solution (22 μmol of catalyst in 620 μL CHCl3) was made up in a 1.5 ml microcentrifuge tube, and stored on ice, along with a stock of (±)-propylene oxide, in a separate tube. The organic layers were prepared by briefly vortexing 150 μL (5.4 μmol, 0.25 mol %) of the catalyst stock in CHCl3 with 150 μL (2.15 mmol) of (±)-propylene oxide in iced microcentrifuge tubes. These were loaded into 1 mL quartz cuvettes using precooled (refrigerator), disposable 1 mL syringes. The aqueous layers were then layered on top of the organic layers, by syringe, down the walls of the cuvette.

Setting [4] is: reaction stopped at the time given (mostly 3 h), + = (S), − = (R).

As to `CC(C)(C)c1cccc(C=NC[C@@H](N=Cc2cccc(C(C)(C)C)c2O)c2ccccc2)c1O` [Salen 2b, N,N′-Bis(3′-tert-butylsalicylidene)-(1S)-phenyl-1,2-ethylenediamine], in experiment [1], the “[diol] (mM) @ 15 min” value is listed as 22 mM and the Norm. is given as 0.23. In experiment [2] (3 h), the “NMR conv. (time)” value is 26 (3 h) %. The “% ee (HPLC)” value in experiment [2] (setting [4]) was −75 (R) % ee. Moreover, the “% ee of the 1,2-propanediol product, as observed by chiral HPLC (lower number)” value (from here on “% ee … (lower number)”) in experiment [2] (+ = (S), − = (R)) was −75 % ee. Further, the “% ee of the 1,2-propanediol product, as predicted by double-cuvette ISES (upper number)” value in experiment [3] was −73 % ee.

As for “N,N′-Bis(1′-hydroxy-2′-naphthylidene)-[1R-(1α,2α,5α)]-2-amino-7,7-dimethyl-2-bicyclo[3.3.1]heptane-ethanamine [Salen 1d]”, in experiment [1], the “[diol] (mM) @ 15 min” value worked out at 91 mM and the Norm. is 0.95. For the same compound, the “% ee (HPLC)” value in experiment [2] (@1 h) is “+81@1 h, % ee”. The “% ee (HPLC)” value in experiment [2] (@3 h) is recorded as “+67@3 h (S) % ee”. In addition, the “% ee … (lower number)” value in experiment [2] (+ = (S), − = (R)) is recorded as “+81 % ee”. Also, the “% ee of the 1,2-propanediol product, as predicted by double-cuvette ISES (upper number)” value in experiment [3] is “+75 % ee”.

Take `Oc1c(C=NC[C@H](Cc2ccccc2)N=Cc2ccc3ccccc3c2O)ccc2ccccc12` [Salen 3d, N,N′-Bis(1′-hydroxy-2′-naphthylidene)-(1S)-benzyl-1,2-ethylenediamine]: the “NMR conv. (time)” value in experiment [2] (3 h) is 10 (3 h) %. Further, the “% ee (HPLC)” value in experiment [2] (setting [4]) is −30 (R) % ee. Further, in experiment [2] (+ = (S), − = (R)), the “% ee … (lower number)” value was −30 % ee. Further, the “% ee of the 1,2-propanediol product, as predicted by double-cuvette ISES (upper number)” value in experiment [3] is listed as −54 % ee.

For `Oc1c(I)cc(I)cc1C=NC[C@H](Cc1ccc2ccccc2c1)N=Cc1cc(I)cc(I)c1O` [Salen 5e, N,N′-Bis(3′,5′-diiodosalicylidene)-(1S)-(β-naphthylmethyl)-1,2-ethylenediamine], in experiment [2] (3 h), the “NMR conv. (time)” value is on record as 3 (3 h) %. Further, the “% ee (HPLC)” value in experiment [2] (setting [4]) is on record as −5 (R) % ee. The “% ee … (lower number)” value in experiment [2] (+ = (S), − = (R)) was −5 % ee. In experiment [3], the “% ee of the 1,2-propanediol product, as predicted by double-cuvette ISES (upper number)” value is listed as “+35 % ee”.

For `CO[C@H]1[C@@H]2OC(C)(C)O[C@@H]2COC1(CN=Cc1cc(C(C)(C)C)cc(C(C)(C)C)c1O)N=Cc1cc(C(C)(C)C)cc(C(C)(C)C)c1O` (some centres unmarked) [Salen 6a, N,N′-Bis(3′,5′-di-tert-butylsalicylidene)-3-O-methyl-4,5-O-isopropylidene-1,2-dideoxy-Dfructopyranosyl-1,2-diamine], the “NMR conv. (time)” value in experiment [2] (3 h, listed as 6a*) is recorded as 12 (3 h) %. Moreover, the “% ee (HPLC)” value in experiment [2] (reaction stopped at the time printed in the row (mostly 3 h), + = (S), − = (R), listed as 6a*) was “+69 (S) % ee”. In experiment [2] (+ = (S), − = (R), listed as 6a*), the “% ee … (lower number)” value is listed as “+69 % ee”. For the same compound, the “% ee of the 1,2-propanediol product, as predicted by double-cuvette ISES (upper number)” value in experiment [3] (listed as 6a*) is on record as “+77 % ee”.

Consider “N,N′-Bis(3′-tert-butylsalicylidene)-[1R-(1α,2α,5α)]-2-amino-7,7-dimethyl-2-bicyclo[3.3.1]heptaneethanamine [Salen 1b]”, for which, in experiment [2] (setting [4]), the “% ee (HPLC)” value is “+75 (S) % ee”. The “% ee … (lower number)” value in experiment [2] (+ = (S), − = (R)) is listed as “+75 % ee”. Besides, in experiment [3], the “% ee of the 1,2-propanediol product, as predicted by double-cuvette ISES (upper number)” value is recorded as “+68 % ee”.

Consider `Oc1ccc2ccccc2c1C=NC[C@H](Cc1ccccc1)N=Cc1c(O)ccc2ccccc12` [Salen 3c, N,N′-Bis(2′-hydroxy-1′-naphthylidene)-(1S)-benzyl-1,2-ethylenediamine], for which the “NMR conv. (time)” value in experiment [2] (time not given) is given as “none obs”. Besides, the ISES signal result in experiment [3] (over 35 min) is recorded as “§ (These catalysts gave ISES signals <20 mAbs min−1 over 35 min.)”.

As to `CC1(C)CCN2CCC(C)(C)c3c(O)c(C=NC[C@@H](N=Cc4cc5c6c(c4O)C(C)(C)CCN6CCC5(C)C)c4ccccc4)cc1c32` [Salen 2g, N,N′-Bis(8′-hydroxy-1′,1′,7′,7′-tetramethyljulolidinyl-9′-methylidene)-(1S)-phenyl-1,2-ethylenediamine], the “% ee (HPLC)” value is recorded as −71@3 h, % ee in experiment [2] (@3 h) and −65@20 h (R) % ee in experiment [2] (@20 h). Further, the “% ee … (lower number)” value in experiment [2] (+ = (S), − = (R)) is −71 % ee. Further, in experiment [3], the “% ee of the 1,2-propanediol product, as predicted by double-cuvette ISES (upper number)” value is on record as −41 % ee. Moreover, in experiment [3] (over 35 min), the “ISES rate in the HLADH cuvette” value came to 14.9 mAbs min−1.

For `CC(C)(C)c1cc(C=NC[C@H](Cc2ccccc2)N=Cc2cc(C(C)(C)C)cc(C(C)(C)C)c2O)c(O)c(C(C)(C)C)c1` [Salen 3a, N,N′-Bis(3′,5′-di-tert-butylsalicylidene)-(1S)-benzyl-1,2-ethylenediamine], in experiment [2] (3 h), the “NMR conv. (time)” value is recorded as 46 (3 h) %. Further, the “% ee (HPLC)” value in experiment [2] (setting [4]) was “+55 (S) % ee”. Moreover, in experiment [2] (+ = (S), − = (R)), the “% ee … (lower number)” value is recorded as “+55 % ee”. The “% ee of the 1,2-propanediol product, as predicted by double-cuvette ISES (upper number)” value in experiment [3] is “+48 % ee”.

Consider `Oc1c(I)cc(I)cc1C=NC[C@H](Cc1cccc2ccccc12)N=Cc1cc(I)cc(I)c1O` [Salen 4e, N,N′-Bis(3′,5′-diiodosalicylidene)-(1S)-(α-naphthylmethyl)-1,2-ethylenediamine], for which the “NMR conv. (time)” value in experiment [2] (24 h) is 6 (24 h) %. Besides, the “% ee (HPLC)” value in experiment [2] (setting [4]) is listed as “+14 (S) % ee”. In addition, the “% ee … (lower number)” value in experiment [2] (+ = (S), − = (R)) is “+14 % ee”. The “% ee of the 1,2-propanediol product, as predicted by double-cuvette ISES (upper number)” value in experiment [3] is reported as “+43 % ee”. The “ISES rate in the HLADH cuvette” value in experiment [3] (over 35 min) is 18.1 mAbs min−1.

Regarding `CO[C@H]1[C@@H]2OC(C)(C)O[C@@H]2COC1(CN=Cc1cccc(C(C)(C)C)c1O)N=Cc1cccc(C(C)(C)C)c1O` (some centres unmarked) [Salen 7b, N,N′-Bis(3′-tert-butylsalicylidene)-3-O-methyl-4,5-O-isopropylidene-1,2-dideoxy-Dfructopyranosyl-1,2-diamine], in experiment [2] (3 h), the “NMR conv. (time)” value is 9 (3 h) %. For the same compound, in experiment [2] (setting [4]), the “% ee (HPLC)” value is reported as −40 (R) % ee. The “% ee … (lower number)” value in experiment [2] (+ = (S), − = (R)) is recorded as −40 % ee. Moreover, the “% ee of the 1,2-propanediol product, as predicted by double-cuvette ISES (upper number)” value in experiment [3] was −28 % ee.
